Data from patent publication US12213957B2, “Use of aminoacetonitrile compounds for the treatment of infection and disease” (PITNEY PHARMACEUTICALS PTY LIMITED, priority 2020, dated 2025).
Values joined by “and” are separate entries in the source; they are usually repeats but may differ in a detail not shown here. Equal entries are not always repeated. Where two headings read alike, the source gives them in different places.

Assays:
[1] = test system: ribosomal protein S6 kinase beta-1 (RPS6KB1); assay: RPS6KB1 phosphorylation levels in patients' PBMCs (mTOR signalling); format: in vivo, human; details: 5 mg/kg bw daily
cancer = assay: Phase 1b clinical trial, RECIST1.1 by computerised tomography; format: in vivo, human; details: monepantel as Zolvix daily 5 mg/kg bw
Experimental: (§1) In a Phase 1 b clinical trial, monepantel administered as Zolvix daily to four human patients (PA02, PA04, PA06 and PA07) at 5 mg/kg bw provided an anticancer effect by computerised tomography (CT) scanning according to RECIST1.1 criteria. […] Evidence of mTOR pathway signalling inhibition in these patients was supported by the finding of decreased eurkaryotic translation initiation factor 4E-binding protein 1 (EIF-4EBP1) phosphorylation levels from the preparations of PBMCs from PA02, PA04 and PA06 (FIG. 1B). EIF-4EIBP1 phosphorylation levels were not assayed from preparations of PBMCs from PA07.

[2] = test system: treatment naïve B cell lymphoma; assay: Phase 2 veterinary clinical trial, RECIST 1.1 tumour response; format: in vivo, dog
Experimental: Superficial tumour lesions were measured with calipers, while lesions within the body were assessed by X-Ray, ultrasound, computer tomography (CT) and/or physical palpitation. Baseline Day 0 (D0) predose caliper, X-Ray, ultrasound and CT measurements where available as well as a complete physical examination were recorded.

[3] = Blood plasma levels in human patients; format: in vivo; details: monepantel as Zolvix 5 mg/kg bw daily
Experimental: as §1
Blood plasma monepantel and monepantel sulfone levels of all four patients were recorded at intervals throughout treatment (Table 2).

[4] = test system: eurkaryotic translation initiation factor 4E-binding protein 1 (EIF-4EBP1); assay: EIF-4EBP1 phosphorylation levels in patients' PBMCs (mTOR signalling); format: in vivo, human; details: 5 mg/kg bw daily
Experimental: as §1

SARS-CoV-2 [5] = format: cell-based; details: Calu-3 human cells, concentrations from 3.00 μM down to 0.013 μM
[6] = Blood plasma levels in pet dogs of the veterinary trial; format: in vivo, dog; details: plasma, oral, 179 mg/kg bw; dog 003-001 that achieved a partial response; read-out: monepantel blood plasma level
Experimental: In a Phase 2 veterinary clinical trial, monepantel was administered as tablets daily to six pet dog patients (dog identification numbers: 001-001, 001-002, 001-003, 003-001, 004-002 and 004-003) with treatment naïve B cell lymphoma at a target dose of 179 mg/kg bw. Superficial tumour lesions were measured with calipers, while lesions within the body were assessed by X-Ray, ultrasound, computer tomography (CT) and/or physical palpitation. Baseline Day 0 (D0) predose caliper, X-Ray, ultrasound and CT measurements where available as well as a complete physical examination were recorded.
An inverse correlation between RECIST1.1 response and blood plasma levels of monepantel and monepantel sulfone was evident. The one dog (003-001) that achieved a partial response, recorded monepantel and […] of 0.1 and 6.7 μM, respectively.

SARS-CoV-2 [7] = format: cell-based; details: VERO cells
[8] = test system: VERO cells infected with SARS-CoV-2; format: cell-based; details: approximately 5 μM MPL
SARS-CoV-2 [9] = format: cell-based; details: 0.032 μM and 0.064 μM compared to 40 μM and 8 μM values, p<0.05 and <0.001
VERO cells [10] = assay: cells; details: Chlorocebus sabaeus, 120 h, read-out: 1050 (estimated from the 8 μM and 40 μM values)
VERO cells [11] = test system: VERO cells
[12] = PA02, after three days of treatment
[13] = PA04, after three days of treatment
[14] = PA06, after three days of treatment
[15] = pet dogs, monepantel tablets daily, target dose 179 mg/kg bw, one value per dog, 179 mg/kg
[16] = six pet dogs, tablets daily, 179 mg/kg bw

C[C@](C#N)(COc1cc(C#N)ccc1C(F)(F)F)NC(=O)c1ccc(SC(F)(F)F)cc1 [MPL, N-[(1S)-1-Cyano-2-(5-cyano-2-trifluoromethyl-phenoxy)-1-methyl-ethyl]-4-trifluoromethylsulfanyl-benzamide]
reduction of PBMC RPS6KB1 phosphorylation levels relative to pre-treatment ([1]; PA02, PA06 and PA07, after seven days of treatment): 85.6%
reduction of PBMC RPS6KB1 phosphorylation levels relative to pre-treatment [1, 12]: 27.3%
reduction of PBMC RPS6KB1 phosphorylation levels relative to pre-treatment [1, 13]: 28.6%
reduction of PBMC RPS6KB1 phosphorylation levels relative to pre-treatment [1, 14]: 81.2%
mTOR signalling (decreased RPS6KB1 phosphorylation in PBMCs) ([1]; four patients): inhibited in all four patients
RECIST1.1 response by CT (cancer; patient PA07): progressive disease
RECIST1.1 response by CT (cancer; patients PA02, PA04 and PA06): stable disease
RECIST 1.1 tumour response D14 Target Lesions [2, 15]: PR (PR = partial response)
RECIST 1.1 tumour response Overall [2, 15]: PR (PR = partial response)
target superficial lymph node caliper measurements at D28 ([2]; pet dogs, tablets daily, 179 mg/kg bw): four of four dogs achieving stable target superficial lymph node caliper measurements
RECIST 1.1 responses of the six dogs at D14 [2, 16]: One dog achieved a partial response, four dogs achieved stable disease and one dog had progressive disease
anti-cancer effect at D14 [2, 16]: strong anti-cancer effect
Blood plasma level of monepantel, Average ([3]; 0.25 h, average of patients): 0.010 ∞M
Blood plasma level of monepantel ([3]; 0.25 h, individual patients): 6.46 ng/ml and 0 ng/ml (2×) and 12.2 ng/ml
Blood plasma level of monepantel, Average ([3]; 0.5 h, average of patients): 0.051 ∞M
Blood plasma level of monepantel ([3]; 0.5 h, individual patients): 39.4 ng/mL and 16.1 ng/mL and 10.5 ng/mL and 31 ng/mL
Blood plasma level of monepantel, Average ([3]; 1 h, average of patients): 0.137 ∞M
Blood plasma level of monepantel ([3]; 1 h, individual patients): 110 ng/mL and 46.2 ng/mL and 42.1 ng/mL and 61 ng/mL
Blood plasma level of monepantel, Average ([3]; 2 h, average of patients): 0.298 ∞M
Blood plasma level of monepantel ([3]; 2 h, individual patients): 99.1 ng/mL and 171 ng/mL and 112 ng/mL
Blood plasma level of monepantel, Average ([3]; 4 h, average of patients): 0.353 ∞M
Blood plasma level of monepantel ([3]; 4 h, individual patients): 104 ng/mL and 234 ng/mL and 144 ng/mL and 187 ng/mL
Blood plasma level of monepantel, Average ([3]; 8 h, average of patients): 0.145 ∞M
Blood plasma level of monepantel ([3]; 8 h, individual patients): 62.1 ng/mL and 63.6 ng/mL and 108 ng/mL and 40.2 ng/mL
Blood plasma level of monepantel, Average ([3]; 12 h, average of patients): 0.064 ∞M
Blood plasma level of monepantel ([3]; 12 h, individual patients): 26.9 ng/mL and 24.1 ng/mL and 52.5 ng/mL and 18.6 ng/mL
Blood plasma level of monepantel, Average ([3]; 24 h, average of patients): 0.030 ∞M
Blood plasma level of monepantel ([3]; 24 h, individual patients): 13.7 ng/mL and 11.6 ng/mL and 21.8 ng/mL and 9.95 ng/mL
Blood plasma level of monepantel, Average ([3]; pre-dose D3, average of patients): 10.7 ng/ml and 0.023 ∞M
Blood plasma level of monepantel ([3]; pre-dose D3, individual patients): 16.4 ng/mL and 8.07 ng/mL and 9.99 ng/mL and 8.33 ng/mL
Blood plasma level of monepantel, Average ([3]; pre-dose D4, average of patients): 9.2 ng/ml and 0.019 ∞M
Blood plasma level of monepantel ([3]; pre-dose D4, individual patients): 14.7 ng/mL and 6.98 ng/mL and 8.65 ng/mL and 6.44 ng/mL
Blood plasma level of monepantel, Average ([3]; pre-dose D5, average of patients): 6.9 ng/ml and 0.015 ∞M
Blood plasma level of monepantel ([3]; pre-dose D5, individual patients): 9.94 ng/mL and 6.86 ng/mL and 5.72 ng/mL and 5.03 ng/mL
Blood plasma level of monepantel, Average ([3]; pre-dose D6, average of patients): 6.3 ng/ml and 0.013 ∞M
Blood plasma level of monepantel ([3]; pre-dose D6, individual patients): 9.99 ng/mL and 7.22 ng/mL and 4.62 ng/mL and 3.34 ng/mL
Blood plasma level of monepantel, Average ([3]; pre-dose D7, average of patients): 5.4 ng/ml and 0.011 ∞M
Blood plasma level of monepantel ([3]; pre-dose D7, individual patients): 7.42 ng/mL and 6.39 ng/mL and 4.58 ng/mL and 3.32 ng/mL
Blood plasma level of monepantel, Average ([3]; pre-dose D14, average of patients): 4.4 ng/ml and 0.009 ∞M
Blood plasma level of monepantel ([3]; pre-dose D14, individual patients): 4.85 ng/mL and 5.25 ng/mL and 3.23 ng/mL
Blood plasma level of monepantel, Average ([3]; pre-dose D21, average of patients): 3.8 ng/ml and 0.008 ∞M
Blood plasma level of monepantel ([3]; pre-dose D21, individual patients): 4.34 ng/mL and 3.16 ng/mL
Blood plasma level of monepantel, Average ([3]; pre-dose D28, average of patients): 3.8 ng/ml and 0.008 ∞M
Blood plasma level of monepantel ([3]; pre-dose D28, individual patients): 4.65 ng/mL and 2.96 ng/mL
concentration at 0.25 h ([3]; plasma, oral, 5 mg/kg bw, 0.25 h, average of patients, read-out: Blood plasma level of monepantel, Average): 4.7 ng/mL
concentration at 0.5 h ([3]; plasma, oral, 5 mg/kg bw, 0.5 h, average of patients, read-out: Blood plasma level of monepantel, Average): 24.3 ng/mL
concentration at 1 h ([3]; plasma, oral, 5 mg/kg bw, 1 h, average of patients, read-out: Blood plasma level of monepantel, Average): 64.8 ng/mL
concentration at 2 h ([3]; plasma, oral, 5 mg/kg bw, 2 h, average of patients, read-out: Blood plasma level of monepantel, Average): 141 ng/mL
concentration at 2 h ([3]; plasma, oral, 5 mg/kg bw, 2 h, individual patients, read-out: Blood plasma level of monepantel): 183 ng/mL
concentration at 4 h ([3]; plasma, oral, 5 mg/kg bw, 4 h, average of patients, read-out: Blood plasma level of monepantel, Average): 167 ng/mL
concentration at 8 h ([3]; plasma, oral, 5 mg/kg bw, 8 h, average of patients, read-out: Blood plasma level of monepantel, Average): 68.5 ng/mL
concentration at 12 h ([3]; plasma, oral, 5 mg/kg bw, 12 h, average of patients, read-out: Blood plasma level of monepantel, Average): 30.5 ng/mL
concentration at 24 h ([3]; plasma, oral, 5 mg/kg bw, 24 h, average of patients, read-out: Blood plasma level of monepantel, Average): 14.3 ng/mL
reduction of PBMC EIF-4EBP1 phosphorylation levels relative to pre-treatment ([4]; PA02, after seven days of treatment): 85.6%
reduction of PBMC EIF-4EBP1 phosphorylation levels relative to pre-treatment [4, 12]: 38.5%
reduction of PBMC EIF-4EBP1 phosphorylation levels relative to pre-treatment [4, 13]: 96.6%
reduction of PBMC EIF-4EBP1 phosphorylation levels relative to pre-treatment [4, 14]: 34.4%
SARS-CoV-2 infectivity (TCID50) (SARS-CoV-2 [5]): reduced SARS-CoV-2 infectivity
concentration at 14 day [6]: 100 nM
SARS-CoV-2 infectivity (TCID50) compared to no treatment (SARS-CoV-2 [7]; MPL 0.064 μM): significantly reduces SARS-CoV-2 infectivity
SARS-CoV-2 infectivity (TCID50, repeat experiment) compared to no treatment (SARS-CoV-2 [7]; MPL 0.137 μM (greatest effect)): significantly reduces SARS-CoV-2 infectivity
SARS-CoV-2 infectivity (TCID50, repeat experiment) (SARS-CoV-2 [7]; MPL 0.411 μM and 0.046 μM): significantly reduced SARS-CoV-2 infectivity
SARS-CoV-2 infectivity (TCID50) (SARS-CoV-2 [7]; MPL 0.32, 1.6 and 8.0 μM): did not significantly reduce
protection against cell death following infection with SARS-CoV-2 [8]: protected VERO cell against cell death
SARS-CoV-2 RNA concentrations in the media (qPCR) (SARS-CoV-2 [9]): significantly decrease
IC50 (VERO cells [10]): ~30 µM
effect upon SARS-CoV-2 infected VERO cells (LDH) (VERO cells [11]): no apparent effect
toxicity caused by SARS-CoV-2 (VERO cells [11]): appeared to increase toxicity
toxicity to Vero cells (LDH) (VERO cells [11]): significant toxicity
toxicity to uninfected VERO cells (VERO cells [11]): some toxicity
SARS-CoV-2 toxicity (VERO cells [11]; African green monkey): does not apparently increase SARS-CoV-2 toxicity
